Laboratory results as given in article PMC3944389, “Differential Neuroprotective Effects of 5′-Deoxy-5′-Methylthioadenosine” (PLoS ONE, 2014).
Marks after values point to notes of the source that are not given here.

Columns and labels:
[1] = system: rat pure primary neuronal cultures; test: NMDA-induced caspase 3 activation in pure primary neuronal cultures; type: cell-based; conditions: 300 µM NMDA
Method: Primary cultures of rat brain cortical neurons were prepared essentially as described previously. The fronto-lateral cortical lobes were dissected out of Sprague-Dawley embryonic day 17 fetuses and they were dissociated mechanically in Hanks' balanced solution. After centrifugation at 800×g for 5 min, the cells were resuspended in serum-free Neurobasal medium (GIBCO) supplemented with B27 (GIBCO) containing 2 mM L-glutamine, penicillin (20 units/ml) and streptomycin (5 µg/ml), and they were plated onto poly-L-lysine-coated 24-well culture plates or on poly-L-lysine-coated 6-well culture plates. […]
To assay N-methyl–D-aspartate (NMDA) excitotoxicity, primary cultures were seeded in 24-well plates at 15×10^4 cells/well, cultured for 7 days in vitro, and treated for different times with the vehicle alone (dimethyl sulfoxide (DMSO) 1%), NMDA (300 µM), NMDA (300 µM) + MTA (250 µM) or NMDA (300 µM) + MK-801, a NMDA receptor antagonist (10 µM). […] Caspase 3 activity was measured in these lysates one hour after the NMDA addition.
Cortical neurons, or mixed cortical neurons and glia, were seeded in poly-L-lysine-coated 6-well culture plates during 7 days in vitro before start the set of experiments. […] The extracts were then centrifuged at 5,000×g for 10 min at 4°C and the protein content was determined by the BCA protein assay. […]

[2] = system: primary rat oligodendrocyte (OL) cultures; test: AMPA excitotoxicity in primary oligodendrocytes, calcein-AM viability; type: cell-based; conditions: MTA 100 and 300 µM pre-incubated 15 min, viability 24 h after AMPA
Method: Primary rat oligodendrocyte (OL) cultures were derived from the optic nerve of 12-day-old Sprague-Dawley rats, as described previously. Cells were seeded onto 12 mm diameter coverslips coated with poly-D-lysine (10 µg/ml) in 24-well plates at a density of 5×10^3 cells per well. The cells were maintained at 37°C in 5% CO2 and in a chemically defined medium. After 2–4 days in vitro, the cultures were composed of at least 98% O4/galactocerebroside-positive (O4/GalC) cells, while the majority of the remaining cells were stained with antibodies against glial fibrillary acidic protein (GFAP). No A2B5^+ or microglial cells were detected in these cultures.
For a-amino-3-hydroxy-5-methyl-4-isoxazolepropionic acid (AMPA) assays in primary rat OLs, cells were pre-incubated with MTA (100 µM and 300 µM) for 15 min and then exposed to AMPA (10 µM) for an additional period of 15 min. Cell viability was assessed with calcein-AM (Invitrogen) 24 h after application of AMPA, and the number of survival cells on each coverslip was detected by their fluorescence (515 nm filter) and quantified.

[3] = Parallel artificial membrane permeability assay (PAMPA), BBB model, passive diffusion; type: in vitro ADME
Method: The PAMPA assay was used to determine the capacity of compounds to cross a blood brain barrier (BBB) model by passive diffusion, measuring the effective permeability of the compounds at an initial concentration of 200 µM. The buffer solution was prepared from a concentrated commercial solution (Pion, Billerica, MA, US) according to the manufacturer's instructions and the pH was adjusted to 7.4 with 0.5 M NaOH. The compound of interest was dissolved in the buffer solution (200 µM), the PAMPA sandwich was separated and the donor well was filled with 195 µL of the compound of interest. The acceptor plate and donor plate were brought together, with the underside of the membrane in contact with the buffer. An 4 µL aliquot of the phospholipid mixture (20 mg/ml) in dodecane was added to the filter of each well, and then 200 µL of buffer solution was added to each acceptor well. The plate was covered and incubated for 4 h at RT in a saturated humidity atmosphere with agitation and with 25 µm of an unstirred water layer in the Gut-Box (Pion). After 4 h, a 150 µL/well sample from the donor plate and a 150 µL/well sample from the acceptor plate were transferred to HPLC vials. Then, 100 µL from acceptor well, 5 µL from the donor well and 5 µL from the t0 samples were injected into an HPLC reverse-phase symmetry C18 column (150 mm×4.6 mm×5 µm, 100 Å; Waters). Transport was confirmed by HPLC mass spectrometry and matrix-assisted laser desorption/ionization time-of-flight (MALDI-TOF) spectrometry to ensure the compound had maintained its integrity. The phospholipid mixture used was a porcine polar brain lipid extract composed of 12.6% phosphatidylcholine (PC), 33.1% phosphatidylethanolamine (PE), 18.5% phosphatidylserine (PS), 4.1% phosphatidylinositol (PI), 0.8% phosphatidic acid and 30.9% of other compounds.

Q: For 5′-deoxy-5′-methylthioadenosine [MTA], which “survival of neurons exposed to NMDA (caspase 3 activity)” value ([1]; co-treatment with MTA (100, 250 and 500 µM), 1 h) is on record?
A: not enhanced

Q: And the “caspase 3 activity induced by NMDA” value ([1]; pre-treatment 15 min before NMDA, MTA 100, 250 and 500 µM)?
A: decreased significantly

Q: And the “protection of OLs against AMPA toxicity (calcein-AM)” value [2]?
A: fully protected

Q: And the Membrane retention [3]?
A: negligible

Q: And the “effective permeability in PAMPA (in words)” value [3]?
A: low to intermediate effective permeability

Q: What about the “% Membrane retention” value ([3]; 200 µM, pH 7.4, 4 h at RT) of the same substance?
A: 0%

Q: What about the “Pe x 10^−6 (cm/s)” value ([3]; 200 µM, pH 7.4, 4 h at RT) of the same substance?
A: 0.15 ^* x 10^−6 cm/s
